The results in this text go back to patent US8778935B2 (Centro Nacional de Investigaciones Oncologicas (CNIO), priority 2009, dated 2014).

For one experiment, the system named is phospho-Ser-473-Akt. The experiment can be described thus: PI3K signalling: AKT phosphorylation inhibition, Western blot analysis. The conditions noted are these: Homo sapiens, cell assay, read-out: IC50 of AKT Phosphorylation Inhibition (p-AKT cell). It counts as cell-based. As for the experimental part: Cell culture: The cell lines were obtained from the American Type Culture Collection (ATCC). U2OS (human osteosarcoma) was cultured in Dulbecco's modified Eagle's medium (DMEM). PC3 (human prostate carcinoma), MCF7 (human breast cardinoma), HCT116 (human colon carcinoma), […], U251 (human glyoblastoma) were grown in RPMI. All media were supplemented with 10% fetal bovine serum (FBS) (Sigma) and antibiotics-antimycotics. Cell were maintained in a humidified incubator at 37° C. with 5% CO2 and passaged when confluent using trypsin/EDTA.
AKT phosphorylation Inhibition. Western Blot Analysis: Subconfluent cells were incubated under different conditions and washed twice with TBS prior to lysis. Lysis buffer was added containing 50 mM Tris HCl, 150 mM NaCl, 1% NP-40, 2 mM Na3VO4, 100 mM NaF, 20 mM Na4P2O7 and protease inhibitor cocktail (Roche Molecular Biochemicals). The proteins were resolved on 10% SDS-PAGE and transferred to nitrocellulose membrane (Schleicher & Schuell, Dassel, Germany). The membranes were incubated overnight at 4° C. with antibodies specific for Akt, phospho-Ser-473-Akt (Cell Signaling Technology) and α-tubulin (Sigma), they were washed and then incubated with IRDye800 conjugated anti-mouse and Alexa Fluor 680 goat anti-rabbit IgG secondary antibodies. The bands were visualized using an Odyssey infrared imaging system (Li-Cor Biosciences).
(A western blot detects proteins with antibodies after separation by electrophoresis.)

The target of the next experiment is T1, PI3K (p110α/p85α) (Homo sapiens, UniProt P42336).
T1 construct: purchased Carna Biosciences 07CBS-0402A
T1 sequence (P42336 whole entry): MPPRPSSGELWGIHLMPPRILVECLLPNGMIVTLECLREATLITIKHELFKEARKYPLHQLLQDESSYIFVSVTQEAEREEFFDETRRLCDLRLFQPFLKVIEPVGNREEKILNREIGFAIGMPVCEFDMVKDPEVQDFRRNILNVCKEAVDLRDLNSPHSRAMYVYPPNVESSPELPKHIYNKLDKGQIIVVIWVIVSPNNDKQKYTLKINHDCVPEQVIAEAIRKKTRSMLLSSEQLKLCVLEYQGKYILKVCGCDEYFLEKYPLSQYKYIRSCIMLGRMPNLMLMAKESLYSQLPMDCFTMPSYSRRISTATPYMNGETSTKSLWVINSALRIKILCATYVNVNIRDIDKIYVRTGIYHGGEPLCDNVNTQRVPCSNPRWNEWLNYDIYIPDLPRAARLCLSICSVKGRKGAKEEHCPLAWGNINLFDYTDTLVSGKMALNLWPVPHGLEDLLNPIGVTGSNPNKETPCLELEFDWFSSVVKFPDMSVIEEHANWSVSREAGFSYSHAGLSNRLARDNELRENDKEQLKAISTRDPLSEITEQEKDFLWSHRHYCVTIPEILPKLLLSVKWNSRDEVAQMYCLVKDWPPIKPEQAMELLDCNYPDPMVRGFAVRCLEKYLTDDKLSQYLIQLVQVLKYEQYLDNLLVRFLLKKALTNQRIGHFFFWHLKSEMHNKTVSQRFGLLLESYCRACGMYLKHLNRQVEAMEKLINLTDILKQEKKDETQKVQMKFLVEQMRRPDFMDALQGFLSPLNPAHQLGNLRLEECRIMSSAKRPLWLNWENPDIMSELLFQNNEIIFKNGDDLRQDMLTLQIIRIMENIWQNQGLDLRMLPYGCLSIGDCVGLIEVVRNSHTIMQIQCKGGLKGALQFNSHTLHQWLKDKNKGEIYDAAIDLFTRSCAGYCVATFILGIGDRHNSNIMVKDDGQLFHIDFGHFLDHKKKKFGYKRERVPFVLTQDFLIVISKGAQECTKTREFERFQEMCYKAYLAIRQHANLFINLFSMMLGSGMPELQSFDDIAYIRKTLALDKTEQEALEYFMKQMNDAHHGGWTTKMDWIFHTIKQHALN
T1 sequence (P27986 whole entry partner): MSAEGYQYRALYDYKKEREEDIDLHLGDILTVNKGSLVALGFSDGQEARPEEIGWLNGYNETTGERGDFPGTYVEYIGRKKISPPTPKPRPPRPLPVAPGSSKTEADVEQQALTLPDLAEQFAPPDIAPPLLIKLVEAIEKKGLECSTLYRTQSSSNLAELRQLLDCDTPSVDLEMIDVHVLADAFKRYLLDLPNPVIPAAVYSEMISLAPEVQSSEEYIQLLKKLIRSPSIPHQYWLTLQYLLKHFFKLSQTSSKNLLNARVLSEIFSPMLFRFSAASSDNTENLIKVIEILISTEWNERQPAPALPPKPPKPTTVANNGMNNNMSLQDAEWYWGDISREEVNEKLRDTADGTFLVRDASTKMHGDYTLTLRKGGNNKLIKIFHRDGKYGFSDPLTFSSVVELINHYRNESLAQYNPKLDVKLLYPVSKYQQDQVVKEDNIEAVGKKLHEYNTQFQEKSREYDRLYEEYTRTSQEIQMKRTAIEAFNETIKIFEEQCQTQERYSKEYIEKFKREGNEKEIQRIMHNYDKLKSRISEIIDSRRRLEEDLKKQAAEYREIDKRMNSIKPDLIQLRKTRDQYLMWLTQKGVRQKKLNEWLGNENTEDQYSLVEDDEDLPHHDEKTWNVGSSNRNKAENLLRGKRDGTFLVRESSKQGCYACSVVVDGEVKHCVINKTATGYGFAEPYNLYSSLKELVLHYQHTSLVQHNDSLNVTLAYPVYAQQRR
The experiment can be described thus: PI3K Activity Assay (ADP Hunter Plus). It counts as biochemical. Here is the method: The kinase activity was measured by using the commercial ADP Hunter™ Plus assay available from DiscoveRx (#33-016), which is a homogeneous assay to measure the accumulation of ADP, a universal product of kinase activity. […] Reaction was carried out for 1 hour at 25° C. Reagent A and B were sequentially added to the wells and plates were incubated for 30 min at 37° C. […] Values were normalized against the control activity included for each enzyme (i.e., 100% PI3 kinase activity, without compound). These values were plot against the inhibitor concentration and were fit to a sigmoid dose-response curve by using the Graphad software.

Setting [1] is: quantitative results, read-out: PI3Kα IC50.
The mark [2] stands for this setting: quantitative results of Table 4, read-out: PI3Kα IC50.
[3] abbreviates: PI3Kα activity, quantitative results, read-out: PI3Kα IC50.

Where two headings read alike, the source gives them in different places.

What is called IC50 is the point on the concentration scale where inhibition reaches its midpoint. `Oc1cccc(-c2cn3cc(C(F)(F)F)nc3c(N3CCOCC3)n2)c1` [2-13, 3-(2-(trifluoromethyl)-8-morpholinoimidazo[1,2-a]pyrazin-6-yl)phenol]: the IC50 in the experiment on phospho-Ser-473-Akt is 714 nM; on PI3K (p110α/p85α) (setting [1]), 108 nM; at PI3K (p110α/p85α) (semi-quantitative results, read-out: PI3Kα IC50 (semi-quantitative class)), 100 to 1000 nM.

Take `CS(=O)(=O)N1CCN(C(=O)c2cn3cc(-c4cccc5[nH]ncc45)nc(N4CCOCC4)c3n2)CC1` [2-16, (6-(1H-indazol-4-yl)-8-morpholinoimidazo[1,2-a]pyrazin-2-yl)(4-sulfonylmethyl-piperazin-1-yl)methanone]: the results for the IC50 in the experiment with phospho-Ser-473-Akt and on PI3K (p110α/p85α) (setting [1]) were 503 nM and 254 nM, respectively.

As for `CCNC(=O)c1cn2cc(-c3cccc4[nH]ncc34)nc(N3CCOCC3)c2n1` [2-74, N-ethyl-6-(1H-indazol-4-yl)-8-morpholinoimidazo[1,2-a]pyrazine-2-carboxamide], the IC50 worked out at 37 nM in the experiment with phospho-Ser-473-Akt and 92 nM at PI3K (p110α/p85α) (setting [1]).

In the case of `CNC(=O)c1cn2cc(-c3cccc4[nH]ncc34)nc(N3CCOCC3)c2n1` [2-79], the IC50 with phospho-Ser-473-Akt turned out to be 42 nM; at PI3K (p110α/p85α) (setting [1]), 110 nM.

For `NC(=O)c1cn2cc(-c3cccnc3)nc(N3CCCCC3)c2n1` [2-119], the IC50 with phospho-Ser-473-Akt was 87 nM; on PI3K (p110α/p85α) (setting [2]), 93 nM.

On to `O=C(NCCN1CCOCC1)c1cn2cc(-c3cccc4[nH]ncc34)nc(N3CCOCC3)c2n1` [2-142], for which the IC50 in the experiment with phospho-Ser-473-Akt stood at 116 nM; on PI3K (p110α/p85α) (setting [2]), 38 nM.

Regarding `COCCNC(=O)c1cn2cc(-c3cccnc3)nc(N3CCOCC3)c2n1` [2-154], the IC50 in the experiment on phospho-Ser-473-Akt was 1050 nM; on PI3K (p110α/p85α) (setting [2]), 166 nM.

For the compound `Nc1ncc(-c2cn3cc(C(=O)NCCN4CCOCC4)nc3c(N3CCOCC3)n2)cn1` [2-164], the results for the IC50 with phospho-Ser-473-Akt and on PI3K (p110α/p85α) (setting [2]) were 34 nM and 11 nM, respectively.

`Nc1ncc(-c2cn3cc(C4CC4)nc3c(N3CCOCC3)n2)cn1` [2-171]: the results for the IC50 with phospho-Ser-473-Akt and at PI3K (p110α/p85α) (setting [3]) were 379 nM and 50 nM, respectively.

`Nc1ncc(-c2cn3cc(C(F)(F)F)nc3c(N3CCOCC3)n2)cn1` [2-172]: the 50% inhibitory concentration (IC50) in the experiment with phospho-Ser-473-Akt was 149 nM; at PI3K (p110α/p85α) (setting [3]), 32 nM.

Turning to `Nc1ncc(-c2cn3cc(CN4CCOCC4)nc3c(N3CCOCC3)n2)cn1` [2-175], the IC50 worked out at 469 nM in the experiment on phospho-Ser-473-Akt and 83 nM at PI3K (p110α/p85α) (setting [3]).

Take `COCCNC(=O)c1cn2cc(-c3cccc4[nH]ncc34)nc(N3CCOCC3)c2n1` [2-186]: the IC50 in the experiment on phospho-Ser-473-Akt worked out at 281 nM; at PI3K (p110α/p85α) (setting [3]) it was 66 nM.

`CCOC(=O)N1CCC(NC(=O)c2cn3cc(-c4cnc(N)nc4)nc(N4CCOCC4)c3n2)CC1` [2-188]: the IC50 in the experiment on phospho-Ser-473-Akt stood at 60 nM; at PI3K (p110α/p85α) (setting [3]), 3 nM.

For the compound `Nc1ncc(-c2cn3cc(C(=O)N[C@H]4CC[C@H](O)CC4)nc3c(N3CCOCC3)n2)cn1` [2-192], the values for the 50% inhibitory concentration (IC50) with phospho-Ser-473-Akt and at PI3K (p110α/p85α) (setting [3]) were 70 nM and 10 nM, respectively.

As to `Cc1ncc(-c2cn3cc(CN4CCN(S(C)(=O)=O)CC4)nc3c(N3CCOCC3)n2)cn1` [2-196], the values for the IC50 with phospho-Ser-473-Akt and on PI3K (p110α/p85α) (setting [3]) were 134 nM and 21 nM, respectively.

Consider `C[C@@H]1CN(S(C)(=O)=O)C[C@H](C)N1Cc1cn2cc(-c3cnc(N)nc3)nc(N3CCOCC3)c2n1` [2-219], for which the IC50 was 244 nM in the experiment on phospho-Ser-473-Akt and 3 nM on PI3K (p110α/p85α) (setting [3]).

In the case of `CCS(=O)(=O)N1CCN(Cc2cn3cc(-c4cnc(N)nc4)nc(N4CCOCC4)c3n2)CC1` [2-220], the IC50 in the experiment with phospho-Ser-473-Akt was 98 nM; on PI3K (p110α/p85α) (setting [3]), 13 nM.

Turning to `CC(C)CS(=O)(=O)N1CCN(Cc2cn3cc(-c4cnc(N)nc4)nc(N4CCOCC4)c3n2)CC1` [2-221], the IC50 in the experiment with phospho-Ser-473-Akt stood at 135 nM; at PI3K (p110α/p85α) (setting [3]) it was 11 nM.

On to `Nc1ncc(-c2cn3cc(CN4CCS(=O)(=O)CC4)nc3c(N3CCOCC3)n2)cn1` [2-222], for which the figures for the IC50 with phospho-Ser-473-Akt and on PI3K (p110α/p85α) (setting [3]) were 95 nM and 82 nM, respectively.
